Test results taken from PMC7822874, “Chemoprotective antimalarials identified through quantitative high-throughput screening of Plasmodium blood and liver stage parasites” (Scientific Reports, 2021).
Read-outs that look alike come from different tables or passages of the source.

Experiments:
[1] = system: luciferase-expressing P. berghei liver stage parasites in HepG2 cells; assay: Inhibition of liver-stage development assay (ILSDA), Method 2 (WRAIR, 96-well); assay type: cell-based, Plasmodium berghei; details: for Max Resp (signal direction of the dose response): Decrease = decreasing P. berghei viability with dose, Increase = increasing signal, Inactive = no dose response; for Activity direction (Decrease / Inactive): P. berghei liver stage
[2] = in vitro; details: human, hepg2-a16-cd81egfp cells
[3] = Plasmodium berghei, HepG2, Method 2, Hill fit, 50% of maximum activity response, read-out: AC50
[4] = Plasmodium berghei, HepG2, Method 2, log10 of molar AC50 from Hill fit, read-out: Log AC50 (converted)
[5] = Plasmodium berghei, HepG2, P. berghei liver stage, Method 2, dose response, read-out: AC50
[6] = Plasmodium berghei, HepG2, P. berghei liver stage, Method 2, dose response, read-out: Log AC50 (converted)

| Compound | viability at 3 µM ([2]; % viability) [%] | further results |
| --- | --- | --- |
| Cc1ccc(C)c(NC2=C(c3ccc(C(F)(F)F)cc3)C(=O)c3ccccc32)c1 [NCGC00107302] |  | Max Resp (signal direction of the dose response) ([1]; Method 2): Decrease; AC50 [1, 3]: 398 nM; AC50 [1, 4]: 398 nM |
| O=C1C(c2ccc(C(F)(F)F)cc2)=C(Nc2ccc(Cl)cc2)c2ccccc21 [NCGC00107304] |  | Max Resp (signal direction of the dose response) ([1]; Method 2): Inactive |
| CC(C)C1=N[S+](=O)([O-])c2cc(NC(=O)c3ccco3)ccc2N1c1ccccc1 [NCGC00473412-01] |  | Activity direction (Decrease / Inactive) ([1]; Method 2, dose response): Inactive |
| Cc1ccc(NC2=C(c3ccc(C(F)(F)F)cc3)C(=O)c3ccccc32)cc1C [NCGC00107300] |  | Max Resp (signal direction of the dose response) ([1]; Method 2): Decrease; AC50 [1, 3]: 398 nM; AC50 [1, 4]: 398 nM |
| Cc1cccc(N(C)c2nc3ccccc3c3nnc(C)n23)c1 [NCGC00126108] |  | Max Resp (signal direction of the dose response) ([1]; Method 2): Decrease; AC50 ([1]; Method 2, Hill fit, 50% of maximum activity response, read-out: AC50): 200 nM; Log AC50 (M) ([1]; Method 2, log10 of molar AC50 from Hill fit): -6.700 M |
| CCC(C)C1=N[S+](=O)([O-])c2cc(NC(=O)c3ccco3)ccc2N1c1ccccc1 (stereo not shown) [NCGC00473608-01] |  | Activity direction (Decrease / Inactive) ([1]; Method 2, dose response): Decrease; AC50 [1, 5]: 3980 nM; AC50 [1, 6]: 3980 nM |
| CCCN1C(CC(C)C)=N[S+](=O)([O-])c2cc(NC(=O)C(C)C)ccc21 [NCGC00473220-01] |  | Activity direction (Decrease / Inactive) ([1]; Method 2, dose response): Decrease; AC50 [1, 5]: 1120 nM; AC50 [1, 6]: 1120 nM |
| c1ccc(OCC2CN(Cc3ccc4[nH]ccc4c3)CC23CN(c2ccccc2)C3)cc1 (stereo not shown) [NCGC00415812-01] |  | Activity direction (Decrease / Inactive) ([1]; Method 2, dose response): Inactive |
| CC(=O)Nc1ccc2c(c1)[S+](=O)([O-])N=C(CC(C)C)N2CC(C)C [NCGC00473311-01] |  | Activity direction (Decrease / Inactive) ([1]; Method 2, dose response): Inactive |
| O=c1[nH]c(N2CCOCC2)nc2c1CCN(Cc1cc(Cl)ccc1F)CC2 [NCGC00440651] |  | Activity direction (Decrease / Inactive) ([1]; Method 2, dose response): Decrease; AC50 [1, 5]: 200 nM; AC50 [1, 6]: 200 nM |
| N#Cc1cccc(CN2CC(CNc3ccccc3)C3(C2)CN(c2ccccc2)C3)c1 (stereo not shown) [NCGC00415808-01] |  | Activity direction (Decrease / Inactive) ([1]; Method 2, dose response): Decrease; AC50 [1, 5]: 2240 nM; AC50 [1, 6]: 2240 nM |
| O=C(Nc1ncccc1O)c1ccc(S(=O)(=O)Nc2ccccc2)cc1 [MLS001099437-01] |  | Max Resp (signal direction of the dose response) ([1]; Method 2): Inactive |
| CC(C)CCN1CC(CN[S+](=O)([O-])c2ccccc2)C2(C1)CN(c1ccccc1)C2 (stereo not shown) [NCGC00415920-01] |  | Activity direction (Decrease / Inactive) ([1]; Method 2, dose response): Decrease; AC50 [1, 5]: 2820 nM; AC50 [1, 6]: 2820 nM |
| O=C(NC1=C(Nc2ccc(F)cc2)C(=O)c2ccccc2C1=O)c1ccc(Cl)cc1 [MLS000375026] | 97 |  |
| COc1ccc2nc(N3CCN(C(=O)c4ccc([N+](=O)[O-])o4)CC3)sc2c1 [MLS001234236] | 89.3 |  |
| CNc1ccc2oc(C[C@H]3O[C@@]4(CC[C@H]3C)O[C@H]([C@H](C)C(=O)c3ccc[nH]3)[C@H](C)C[C@H]4C)nc2c1C(=O)O [MLS001056783] | 19.2 |  |
| O=C(Nc1ccc2c(N3CCOCC3)ncnc2c1)c1cccc(Br)c1 [NCGC00425561] | 49.3 |  |
| Cc1ccnc2nc(C(=O)Nc3cc(Cl)ccc3N3CCOCC3)nn12 [MLS000567033] | 98.5 |  |
| Cc1ccc(C(=O)N/N=C/c2ccc([N+](=O)[O-])s2)cc1 [MLS000519463] | 95.4 |  |
| Cc1cc(Nc2ccc(Br)c(C)c2)n2nc(C)nc2n1 [MLS000116638] | 87.3 |  |
| O=C(O)c1cc(-c2ccccc2)cc(-c2ccccc2)[n+]1Cc1ccccc1 [MLS001240915] | 98.5 |  |
| COc1ccc(NC(=O)C(c2ccc(Cl)cc2)C(C)C)cn1 (stereo not shown) [MLS001149289] | 88.5 |  |
| O=C(Nc1cccnc1)c1cn(-c2ccccc2)nc1-c1cccs1 [MLS000081870] | 100 |  |
| COc1cc(C(=O)OCC(=O)N2CCCCC2C)cc(NC(=O)c2cccs2)c1OC (stereo not shown) [MLS001003405] | 97.3 |  |

| Compound | viability at 3 µM ([2]; % viability) [%] | further results |
| --- | --- | --- |
| CNc1ccc2oc(C[C@@H]3OC4(CC[C@@H]3C)O[C@H]([C@@H](C)C(=O)c3ccc[nH]3)[C@H](C)C[C@H]4C)nc2c1C(=O)O (stereo partly shown) [NCGC00161647] | 12.5 |  |
| CC(C)N1CC=C(c2c[nH]c3ccccc23)CC1 [MLS000093714] | 93.1 |  |
| CCOc1ccccc1NC(=O)Cn1c(-c2ccc(Cl)cc2)noc1=O [MLS000529487] | 86.9 |  |
| CCN(CC)C1=NC(=[N+](CC)CC)c2ccccc21.[O-][Cl+3]([O-])([O-])O [MLS000565348] | 83.4 |  |
| CCOc1ccc2c(c1)OC(c1ccc(C)cc1)(C(F)(F)F)NC2=O (stereo not shown) [MLS000392832] | 63.5 |  |
| O=C(c1cc(C(=O)NCCc2ccccc2)c(=O)n(CCc2ccccc2)c1)c1cc(Cl)ccc1O [MLS000402354] | 100 |  |
| CCn1cnc2c(Nc3cc(F)cc(F)c3)nc(C#N)nc21 [NCGC00181918] | 79.4 |  |
| CCCC(C)C(=O)Nc1ncc(S(=O)(=O)c2ccc([N+](=O)[O-])cc2)s1 (stereo not shown) [MLS001034555] | 94 |  |
| Cc1cc(Nc2ccc(Cl)cc2)nc(NCc2ccccc2)n1 [MLS000591025] | 87.8 |  |
| O=C(Nc1ccc(S(=O)(=O)N2CCOCC2)cc1)c1cc(-c2cc(Cl)ccc2O)n[nH]1 [MLS000778989] | 73.1 |  |
| OC(c1ccc(Cl)cc1)C(CN1CCOCC1)c1ccccc1 (stereo not shown) [MLS001173582] | 99.6 |  |
| Cc1ccc(-c2c(C(=O)N/N=C/c3cccc(Cl)c3)nnn2-c2nonc2N)cc1 [MLS001139410] | 92.2 |  |
| CCc1c(C)c(C#N)c2nc3ccccc3n2c1NCC1CCCO1 (stereo not shown) [MLS000556827] | 99.5 |  |
| Cc1cccc(Nc2cc(C)c3c(O)cccc3n2)c1C [MLS000586980] | 88.1 |  |
| c1ccc2sc(Sc3ncnc4sccc34)nc2c1 [MLS000334432] | 96.9 |  |
| CCc1nc(N)nc(N)c1-c1ccc(Cl)cc1 [NCGC00023188] | 95.9 |  |
| CCC(=O)N1CCc2cc(Br)cc(S(=O)(=O)N3CCCCC3CC)c21 (stereo not shown) [MLS000936752] | 90.3 |  |
| N=c1ccn(CC(=O)c2ccc(-c3ccccc3)cc2)cc1 [MLS000698051] | 53.4 |  |
| CN1CCc2cccc3c2[C@@H]1Cc1ccc(O)c(O)c1-3 [NCGC00142462] | 93.3 |  |
| O=C(NC(c1ccccc1)c1cc(Cl)c2cccnc2c1O)c1cccnc1 (stereo not shown) [MLS000573359] | 69.7 |  |
| N#Cc1nc(Nc2cc(F)cc(F)c2)c2ncn(CC(F)F)c2n1 [MLS002471784] | 90 |  |
| CCN1CCN(Cc2ccc(NC(=O)c3cc(NC(=O)c4cncc(-c5ccc(C#N)cc5)c4)cc(OC)c3)cc2C(F)(F)F)CC1 [MLS000911575] | 99.9 |  |
| COC(=O)C1=CN(Cc2ccc(OC)cc2)C=C(C(=O)OC)C1c1cc(OC)c(OC)c(OC)c1 [MLS001197127] | 105 |  |
| O=C1c2ccccc2-n2c1nc1ccccc1c2=O [MLS001049121] | 81.6 |  |

| Compound | viability at 3 µM ([2]; % viability) [%] | further results |
| --- | --- | --- |
| CC[C@]1(c2ccccc2OC)ON(c2ccccc2C(F)(F)F)C1=O [MLS002206607] | 102 |  |
| COc1cccc(NC(=O)CN(C)C(=O)c2oc3c(ccc4ccccc43)c2C)c1 [MLS001142056] | 101 |  |
| CC(C)Nc1ccc(Nc2ccnc3cc4ccccc4cc23)cc1 [MLS000766754] | 83.9 |  |
| COc1ccc(C2Sc3ccccc3N=C3C2=C(O)c2ccccc23)c(OC)c1OC (stereo not shown) [NCGC00108825] | 43.7 |  |
| COc1ccc2c(c1)C=C([C@@H]1C[C@H]3CN(c4ccccc4)C(=O)[C@]34CCCN14)CO2 [MLS000734809] | 95.7 |  |
| CN(C)Cc1c(O)ccc2oc(Cc3ccccc3)cc12 [MLS000039159] | 89.6 |  |
| CCOC(=O)c1c(NC(=O)C[n+]2ccc(N(C)C)cc2)sc(C)c1C [MLS000710762] | 65.1 |  |
| Oc1ccc(Br)cc1CN1CCN(c2ccccc2)CC1 [MLS000106609] |  | viability at 3 µM [2]: 99.8% |
| CN(C)c1nc(-c2ccccn2)nnc1-c1ccccc1 [MLS000541553] | 86.2 |  |
| COc1ccc2cc3cc(C(=O)NCC4CCCO4)oc3nc2c1 (stereo not shown) [MLS000091914] | 106 |  |
| COc1ccccc1CNCC(O)Cn1c2ccccc2c2ccccc21 (stereo not shown) [MLS000391556] | 92.6 |  |
| CN(C)CCCn1cnc2c(c1=N)C(c1ccccc1)c1ccc3ccccc3c1O2 (stereo not shown) [MLS001216375] | 106 |  |
| CC1CC(C)CN(C(=O)c2ccc3ccccc3c2)C1 (stereo not shown) [MLS001161774] | 90.9 |  |
| Cc1ccc(/C=N/NC(=O)c2nnn(-c3nonc3N)c2-c2ccc3c(c2)OCO3)s1 [MLS001142659] | 90.4 |  |
| CCN(CC)CC(O)COc1ccccc1C(=O)CCc1ccccc1 (stereo not shown) [MLS000107538] | 104 |  |
| COc1ccc(CCC(=O)N2Cc3ccccc3OC3(CCN(C)CC3)C2)cc1 [NCGC00456460] | 106 |  |
| Oc1ccc(CN2CCCCC2)nc1-c1ccccc1 [MLS000031925] | 99.7 |  |
| O=C1C=C(c2cccc(CO)c2)C[C@@H](c2ccc(Cl)cc2)C1 [MLS002302575] | 102 |  |
| CC[C@@H](C(=O)[C@@H](C)[C@@H](O)[C@H](C)CCc1ccc(C)c(O)c1C(=O)O)[C@H]1O[C@](CC)([C@H]2CC[C@](O)(CC)[C@H](C)O2)C[C@@H]1C [NCGC00095029] | 27.3 |  |
| CCCC(=O)NC(c1ccccc1OC)c1ccc2cccnc2c1O (stereo not shown) [MLS000715345] | 55.4 |  |
| COc1ccc(OC)c(-n2c(S)nnc2-c2ccc(O)cc2O)c1 [MLS000766628] | 104 |  |
| CC(=O)Nc1ccc(Nc2cc(C)nc(Nc3ccc(NC(C)=O)cc3)n2)cc1 [MLS001359830] | 93.2 |  |
| O=c1c2ccccc2nc(N/N=C/c2c(O)ccc3ccccc23)n1O [MLS000551780] | 34.1 |  |
| COc1cc(O)c(C(CCN2CCCC(C)C2)c2ccc3c(c2)OCO3)c(OC)c1 (stereo not shown) [MLS000879506] | 97.8 |  |
